Experimental data taken from ChEMBL document CHEMBL1201862, “PubChem BioAssay data set” (2004).
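Step 1: Grow cells in 96-well plates. Step 2: Expose to compound for 48 hours at 5 concentrations. Step 3: Interpolate endpoints linearly; if unreached, use highest concentration. GI50 is the concentration that inhibits growth by half.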 Activity calls are given as the source filed them. Cut-off read from the data, not from the text of the source: active = GI50 up to about 1.1 µM and inactive = higher.

Columns and labels:
Assay in all cases: growth of human tumour cells (NCI), 48 h
A549 = tested on: A549
COLO 205 = tested on: COLO 205
HCC 2998 = tested on: HCC 2998
HCT-116 = tested on: HCT-116
HL-60 = tested on: HL-60
HOP-18 = tested on: HOP-18
K562 = tested on: K562
NCI-H226 = tested on: NCI-H226
OVCAR-4 = tested on: OVCAR-4
OVCAR-8 = tested on: OVCAR-8
RPMI-8226 = tested on: RPMI-8226
RXF 393 = tested on: RXF 393
SF-295 = tested on: SF-295
SK-MEL-28 = tested on: SK-MEL-28
UACC-257 = tested on: UACC-257
A498 = tested on: A498
HOP-62 = tested on: HOP-62
DMS-114 = tested on: DMS-114

| Structure (SMILES) | GI50 (A549) | GI50 (COLO 205) | GI50 (HCC 2998) | GI50 (HCT-116) | GI50 (HL-60) | GI50 (HOP-18) | GI50 (K562) | GI50 (NCI-H226) | GI50 (OVCAR-4) | GI50 (OVCAR-8) | GI50 (RPMI-8226) | GI50 (RXF 393) | GI50 (SF-295) | GI50 (SK-MEL-28) | GI50 (UACC-257) | GI50 (A498) | GI50 (HOP-62) | GI50 (DMS-114) |
| --- | --- | --- | --- | --- | --- | --- | --- | --- | --- | --- | --- | --- | --- | --- | --- | --- | --- | --- |
| CC1CC2OC(=O)C3CC(O)CC(=C23)[C@@]12C[C@@H](c1ccoc1)OC2=O (stereo not given in full) | > 100 µM (inactive) | > 100 µM (inactive) | > 100 µM (inactive) | > 100 µM (inactive) | > 100 µM (inactive) | > 100 µM (inactive) | > 100 µM (inactive) | > 100 µM (inactive) | > 100 µM (inactive) | > 100 µM (inactive) | > 100 µM (inactive) | > 100 µM (inactive) | > 100 µM (inactive) | > 100 µM (inactive) | > 100 µM (inactive) | – | – | – |
| C=CCCC12CCCC(=O)C1Sc1ccc3ccccc3c12 (stereo not given) | 10.2 µM (inactive) | 12.9 µM (inactive) | 14.1 µM (inactive) | – | 7.08 µM (inactive) | 19.7 µM (inactive) | 16.8 µM (inactive) | 14.1 µM (inactive) | 28.6 µM (inactive) | 32.1 µM (inactive) | 12.9 µM (inactive) | 12.2 µM (inactive) | 19.4 µM (inactive) | 20.7 µM (inactive) | 17.1 µM (inactive) | 13.1 µM (inactive) | 19.8 µM (inactive) | – |
| COc1cc2c(c(OC)c1OC)-c1ccc(SC)c(=O)cc1[C@@H](NC(=O)c1ccc(C#N)cc1)CC2 | < 0.01 µM (active) | < 0.01 µM (active) | < 0.01 µM (active) | < 0.01 µM (active) | < 0.01 µM (active) | – | < 0.01 µM (active) | < 0.01 µM (active) | < 0.01 µM (active) | < 0.01 µM (active) | < 0.01 µM (active) | < 0.01 µM (active) | < 0.01 µM (active) | > 79.8 µM (inactive) | < 0.01 µM (active) | < 0.01 µM (active) | < 0.01 µM (active) | < 0.01 µM (active) |
| COc1cc2c(c(OC)c1OC)-c1ccc(OC)c(=O)cc1[C@@H](N(C)C=O)CC2 | 0.0246 µM (active) | 0.0129 µM (active) | 0.0168 µM (active) | 0.0173 µM (active) | 0.0158 µM (active) | > 100 µM (inactive) | 0.0128 µM (active) | 0.162 µM (active) | 1.37 µM (inactive) | 0.0218 µM (active) | 0.0249 µM (active) | 0.0161 µM (active) | 0.0146 µM (active) | < 0.01 µM (active) | – | 0.0209 µM (active) | < 0.0164 µM (active) | – |
| Cc1nc(=O)n2c(c1C(=O)Nc1ccc(Cl)cc1)NCCC2 | > 100 µM (inactive) | > 100 µM (inactive) | – | > 100 µM (inactive) | > 100 µM (inactive) | – | > 100 µM (inactive) | > 100 µM (inactive) | > 100 µM (inactive) | > 100 µM (inactive) | > 100 µM (inactive) | > 100 µM (inactive) | > 100 µM (inactive) | > 100 µM (inactive) | – | – | > 100 µM (inactive) | > 100 µM (inactive) |
| C(=N\OCc1ccccc1)/c1ncccc1C1OCCO1 | > 100 µM (inactive) | > 100 µM (inactive) | – | > 100 µM (inactive) | > 100 µM (inactive) | > 100 µM (inactive) | > 100 µM (inactive) | – | > 100 µM (inactive) | > 100 µM (inactive) | – | > 100 µM (inactive) | > 100 µM (inactive) | > 100 µM (inactive) | > 100 µM (inactive) | – | > 100 µM (inactive) | > 100 µM (inactive) |
| Cl[Si]1(Cl)Oc2ccccc2O[Si](Cl)(Cl)Oc2ccccc2O1 | 14.3 µM (inactive) | 13.8 µM (inactive) | 20.7 µM (inactive) | 33.2 µM (inactive) | 1.25 µM (inactive) | – | 15.3 µM (inactive) | 38.5 µM (inactive) | 11.8 µM (inactive) | 30.5 µM (inactive) | 9.18 µM (inactive) | – | 31.3 µM (inactive) | 33.3 µM (inactive) | – | 36.2 µM (inactive) | 26.2 µM (inactive) | 1.88 µM (inactive) |
| C/C=C(\C)c1cc(O)c(C)c2c1Oc1cc(O)c(Cl)c(C)c1C(=O)O2 | 31.6 µM (inactive) | 25.3 µM (inactive) | 13 µM (inactive) | > 10 µM (inactive) | 36 µM (inactive) | < 0.01 µM (active) | – | 18.5 µM (inactive) | 16.7 µM (inactive) | 21.4 µM (inactive) | – | 18.8 µM (inactive) | 16.7 µM (inactive) | 22.4 µM (inactive) | 21.5 µM (inactive) | – | 27.7 µM (inactive) | 29.6 µM (inactive) |
| O=C1C(c2ccccc2)=[N+]([O-])c2cc([N+](=O)[O-])c(/C(Cl)=C/c3ccccc3)cc21 | 40.1 µM (inactive) | 17.3 µM (inactive) | – | – | 4.06 µM (inactive) | 24.1 µM (inactive) | 13.8 µM (inactive) | 31.2 µM (inactive) | 13.1 µM (inactive) | 16.1 µM (inactive) | 13.9 µM (inactive) | 22.9 µM (inactive) | 53.3 µM (inactive) | 27.4 µM (inactive) | – | – | – | 8.97 µM (inactive) |
